# Assays:
# Format in all cases: in vivo, human
# [1] = Phase I single dose study, plasma tramiprosate pharmacokinetics; conditions: single dose of oral ALZ-801
# Excerpt: (§1) To advance the clinical development of ALZ-801 into Phase 3, we have completed single dose and 14-day multiple ascending dose Phase 1 bridging studies in healthy elderly volunteers to evaluate safety, tolerability and pharmacokinetics. […] The longer half-life observed in the multiple ascending dose studies was obtained after 14 days of BID dosing and was due to the fact that there were more extended blood sampling time points taken in that study as compared to the single dose study.
# [2] = Phase I 14-day multiple ascending dose study, plasma tramiprosate pharmacokinetics; conditions: over 14 days
# Excerpt: as §1
# [3] = ALZ-801 immediate release tablet, pharmacokinetics and GI tolerability fed vs fasted
smiles,measurement,setting,value
"CC(C)[C@H](N)C(=O)NCCCS(=O)(=O)O [ALZ-801, valyl-3-amino-1-propanesulfonic acid]",Plasma exposure of tramiprosate compared with oral tramiprosate,[1],equivalent plasma exposure of tramiprosate
same,Dose proportionality and accumulation of plasma tramiprosate exposure,[2],excellent dose proportionality without accumulation or decrease in plasma exposure
same,Incidence of GI symptoms with food compared to the fasted state,[3]; ALZ-801 immediate release tablet,markedly reduced
same,Difference in pharmacokinetic parameters between fed and fasted subjects,"[3]; ALZ-801 tablet, single dose of 205 mg",no significant difference
